Measured values taken from paper PMC10408569, “Recruitment of hexahydroquinoline as anticancer scaffold targeting inhibition of wild and mutants EGFR (EGFR^WT, EGFR^T790M, and EGFR^L858R)” (Journal of Enzyme Inhibition and Medicinal Chemistry, 2023).

Assays:
[1] = tested on: UACC-257; test: NCI-60 anticancer screening (SRB); format: cell-based; details: Homo sapiens; UACC-257, melanoma; one dose 10 μM; read-out: Growth Inhibition Percentage (GI %)
[2] = tested on: MOLT-4; test: NCI-60 anticancer screening (SRB); format: cell-based; details: Homo sapiens; MOLT-4, leukemia; one dose 10 μM; read-out: Growth Inhibition Percentage (GI %)
[3] = tested on: KM 12; test: NCI-60 anticancer screening (SRB); format: cell-based; details: Homo sapiens, KM12; KM 12, colon cancer; one dose 10 μM; read-out: Growth Inhibition Percentage (GI %)
[4] = tested on: HOP-62; test: NCI-60 anticancer screening (SRB); format: cell-based; details: Homo sapiens; HOP-62, NSC lung cancer; one dose 10 μM; read-out: Growth Inhibition Percentage (GI %)
[5] = tested on: SK-MEL-2; test: NCI-60 anticancer screening (SRB); format: cell-based; details: Homo sapiens; SK-MEL-2, melanoma; one dose 10 μM; read-out: Growth Inhibition Percentage (GI %)
[6] = tested on: SF-268; test: NCI-60 anticancer screening (SRB); format: cell-based; details: Homo sapiens; SF-268, CNS cancer; one dose 10 μM; read-out: Growth Inhibition Percentage (GI %)
[7] = tested on: K-562; test: NCI-60 anticancer screening (SRB); format: cell-based; details: Homo sapiens, K562; K-562, leukemia; one dose 10 μM; read-out: Growth Inhibition Percentage (GI %)
[8] = tested on: T-47D; test: NCI-60 anticancer screening (SRB); format: cell-based; details: Homo sapiens, T47D, breast cancer, one dose 10 μM, read-out: Growth Inhibition Percentage (GI %)
[9] = tested on: OVCAR-4; test: NCI-60 anticancer screening (SRB); format: cell-based; details: Homo sapiens; OVCAR-4, ovarian cancer; one dose 10 μM; read-out: Growth Inhibition Percentage (GI %)
[10] = tested on: OVCAR-3; test: NCI-60 anticancer screening (SRB); format: cell-based; details: Homo sapiens; OVCAR-3, ovarian cancer; one dose 10 μM; read-out: Growth Inhibition Percentage (GI %)
[11] = tested on: MDA-MB-435; test: NCI-60 anticancer screening (SRB); format: cell-based; details: Homo sapiens; MDA-MB-435, melanoma; one dose 10 μM; read-out: Growth Inhibition Percentage (GI %)
[12] = tested on: OVCAR-5; test: NCI-60 anticancer screening (SRB); format: cell-based; details: Homo sapiens; OVCAR-5, ovarian cancer; one dose 10 μM; read-out: Growth Inhibition Percentage (GI %)
[13] = tested on: SR; test: NCI-60 anticancer screening (SRB); format: cell-based; details: Homo sapiens, leukemia, one dose 10 μM, read-out: Growth Inhibition Percentage (GI %)
[14] = tested on: NCI-H322M; test: NCI-60 anticancer screening (SRB); format: cell-based; details: Homo sapiens, NSC lung cancer, one dose 10 μM, read-out: Growth Inhibition Percentage (GI %)
[15] = tested on: OVCAR-8; test: NCI-60 anticancer screening (SRB); format: cell-based; details: Homo sapiens; OVCAR-8, ovarian cancer; one dose 10 μM; read-out: Growth Inhibition Percentage (GI %)
[16] = tested on: SNB-75; test: NCI-60 anticancer screening (SRB); format: cell-based; details: Homo sapiens; SNB-75, CNS cancer; one dose 10 μM; read-out: Growth Inhibition Percentage (GI %)
[17] = tested on: A549/ATCC; test: NCI-60 anticancer screening (SRB); format: cell-based; details: Homo sapiens; A549/ATCC, NSC lung cancer; one dose 10 μM; read-out: Growth Inhibition Percentage (GI %)
[18] = tested on: SNB-19; test: NCI-60 anticancer screening (SRB); format: cell-based; details: Homo sapiens; SNB-19, CNS cancer; one dose 10 μM; read-out: Growth Inhibition Percentage (GI %)
[19] = tested on: SK-MEL-5; test: NCI-60 anticancer screening (SRB); format: cell-based; details: Homo sapiens; SK-MEL-5, melanoma; one dose 10 μM; read-out: Growth Inhibition Percentage (GI %)
[20] = tested on: NCI 60 cancer cell lines; test: NCI-60 anticancer screening (SRB), whole panel; format: cell-based, human; details: mean across the NCI-60 panel; one dose 10 μM
[21] = tested on: RXF 393; test: NCI-60 anticancer screening (SRB); format: cell-based; details: Homo sapiens; RXF 393, renal cancer; one dose 10 μM; read-out: Growth Inhibition Percentage (GI %)
[22] = tested on: HCT-15; test: NCI-60 anticancer screening (SRB); format: cell-based; details: Homo sapiens; HCT-15, colon cancer; one dose 10 μM; read-out: Growth Inhibition Percentage (GI %)
[23] = tested on: RPMI-8226; test: NCI-60 anticancer screening (SRB); format: cell-based; details: Homo sapiens; RPMI-8226, leukemia; one dose 10 μM; read-out: Growth Inhibition Percentage (GI %)
[24] = tested on: NCI-H226; test: NCI-60 anticancer screening (SRB); format: cell-based; details: Homo sapiens; NCI-H226, NSC lung cancer; one dose 10 μM; read-out: Growth Inhibition Percentage (GI %)
[25] = tested on: SK-OV-3; test: NCI-60 anticancer screening (SRB); format: cell-based; details: Homo sapiens; SK-OV-3, ovarian cancer; one dose 10 μM; read-out: Growth Inhibition Percentage (GI %)
[26] = tested on: NCI-H522; test: NCI-60 anticancer screening (SRB); format: cell-based; details: Homo sapiens; NCI-H522, NSC lung cancer; one dose 10 μM; read-out: Growth Inhibition Percentage (GI %)
[27] = tested on: SW-620; test: NCI-60 anticancer screening (SRB); format: cell-based; details: Homo sapiens; SW-620, colon cancer; one dose 10 μM; read-out: Growth Inhibition Percentage (GI %)
[28] = tested on: ACHN; test: NCI-60 anticancer screening (SRB); format: cell-based; details: Homo sapiens, renal cancer, one dose 10 μM, read-out: Growth Inhibition Percentage (GI %)
[29] = tested on: MDA-MB-468; test: NCI-60 anticancer screening (SRB); format: cell-based; details: Homo sapiens; MDA-MB-468, breast cancer; one dose 10 μM; read-out: Growth Inhibition Percentage (GI %)
[30] = tested on: LOX IMVI; test: NCI-60 anticancer screening (SRB); format: cell-based; details: Homo sapiens, melanoma, one dose 10 μM, read-out: Growth Inhibition Percentage (GI %)
[31] = tested on: HCC-2998; test: NCI-60 anticancer screening (SRB); format: cell-based; details: Homo sapiens; HCC-2998, colon cancer; one dose 10 μM; read-out: Growth Inhibition Percentage (GI %)
[32] = tested on: HL-60(TB); test: NCI-60 anticancer screening (SRB); format: cell-based; details: Homo sapiens, leukemia, one dose 10 μM, read-out: Growth Inhibition Percentage (GI %)

| SMILES | inhibition at 10 µM [1] | inhibition at 10 µM [2] | melting point | inhibition at 10 µM [3] | inhibition at 10 µM [4] | inhibition at 10 µM [5] | inhibition at 10 µM [6] | inhibition at 10 µM [7] | inhibition at 10 µM [8] | inhibition at 10 µM [9] | inhibition at 10 µM [10] | inhibition at 10 µM [11] | inhibition at 10 µM [12] | inhibition at 10 µM [13] | inhibition at 10 µM [14] | inhibition at 10 µM [15] | inhibition at 10 µM [16] | inhibition at 10 µM [17] | inhibition at 10 µM [18] | inhibition at 10 µM [19] | further results |
| --- | --- | --- | --- | --- | --- | --- | --- | --- | --- | --- | --- | --- | --- | --- | --- | --- | --- | --- | --- | --- | --- |
| CCOC(=O)C1=C(N)N(c2ccc(C)cc2)C2=C(C(=O)CC(C)(C)C2)C1c1cccnc1 (racemic) [12e, (±)-Ethyl 2-amino-7,7-dimethyl-1–(4-methylphenyl)-5-oxo-1-phenyl-4-(pyrdin-3-yl)-1,4,5,6,7,8-hexahydroquinoline-3-carboxylate] | < 10% | < 10% | 261 to 263 °C | < 10% | < 10% | < 10% | < 10% | < 10% | < 10% | < 10% | < 10% | < 10% | < 10% | < 10% | < 10% | < 10% | 14% | < 10% | < 10% | < 10% | GI % mean [20]: - ((-) = GI % mean less than 10); inhibition at 10 µM [21]: < 10%; inhibition at 10 µM [22]: < 10%; inhibition at 10 µM [23]: 11%; inhibition at 10 µM [24]: < 10%; inhibition at 10 µM [25]: < 10%; inhibition at 10 µM [26]: < 10%; inhibition at 10 µM [27]: < 10%; inhibition at 10 µM [28]: < 10%; inhibition at 10 µM [29]: < 10%; inhibition at 10 µM [30]: < 10%; inhibition at 10 µM [31]: < 10%; inhibition at 10 µM [32]: < 10% |
| CCOC(=O)C1=C(N)N(c2ccccc2)C2=C(C(=O)CC(C)(C)C2)C1c1ccc(Cl)cc1 (racemic) [8c, (±)-Ethyl 2-amino-4–(4-chlorophenyl)-7,7-dimethyl-5-oxo-1-phenyl-1,4,5,6,7,8-hexahydroquinoline-3-carboxylate] | 72% | 99% | 215 to 217 °C | 82% | 19% | 70% | 42% | 82% | 70% | 71% | 48% | 78% | 42% | 87% | 35% | 39% | 27% | 66% | 85% | 72% | GI % mean [20]: 63%; inhibition at 10 µM [21]: < 10%; inhibition at 10 µM [22]: 85%; inhibition at 10 µM [23]: 92%; inhibition at 10 µM [24]: 30%; inhibition at 10 µM [25]: 56%; inhibition at 10 µM [26]: 62%; inhibition at 10 µM [27]: 72%; inhibition at 10 µM [28]: 78%; inhibition at 10 µM [29]: 67%; inhibition at 10 µM [30]: 59%; inhibition at 10 µM [31]: 57%; inhibition at 10 µM [32]: 94% |
| CCOC(=O)C1=C(N)N(c2ccccc2)C2=C(C(=O)CC(C)(C)C2)C1c1ccc(N2CCOCC2)cc1 (racemic) [8l, (±)-Ethyl 2-amino-7,7-dimethyl-4-[4-(morpholin-4-yl)phenyl]-5-oxo-1-phenyl-1,4,5,6,7,8-hexahydroquinoline-3-carboxylate] | < 10% | < 10% | 193 to 195 °C | < 10% | < 10% | < 10% | < 10% | < 10% | < 10% | < 10% | < 10% | < 10% | < 10% | 16% | < 10% | < 10% | < 10% | < 10% | < 10% | < 10% | GI % mean [20]: - ((-) = GI % mean less than 10); inhibition at 10 µM [21]: < 10%; inhibition at 10 µM [22]: < 10%; inhibition at 10 µM [23]: < 10%; inhibition at 10 µM [24]: < 10%; inhibition at 10 µM [25]: < 10%; inhibition at 10 µM [26]: 11%; inhibition at 10 µM [27]: < 10%; inhibition at 10 µM [28]: < 10%; inhibition at 10 µM [29]: < 10%; inhibition at 10 µM [30]: < 10%; inhibition at 10 µM [31]: < 10%; inhibition at 10 µM [32]: < 10% |
